Like-named read-outs stand apart in the source and are kept apart here.
Key:
SARS-CoV-2 [1] = type: cell-based
SARS-CoV-2 [2] = type: cell-based; settings: compound 10 and 31.6 μM, MOI 0.01, 72 hours
Vero E6 cells [3] = tested on: Vero E6 cells
Vero E6 cells [4] = settings: 48 hours, CellTiterGlo
[5] = 1 hour pre-treatment, 1 nM-100 μM, MOI 0.05, 48 hours, Vero E6 cells

## COc1ccc(-c2cc(=O)c3c(O)cc(O)cc3o2)cc1-c1c(O)cc(O)c2c(=O)cc(-c3ccc(O)cc3)oc12 [Bilobetin]
SARS-CoV-2 [1]; [5]
  effect on Viral Load (viral burden): reduction in Viral Load levels

## O=c1oc2c(O)c(O)cc3c(=O)oc4c(O)c(O)cc1c4c23 [Ellagic Acid]
SARS-CoV-2 [2]
  Remdesivir concentration at which the compound synergized: ≤ 0.625 µM
  combined effect with Remdesivir on host cell viability: synergized

## COc1cc(O)c2c(=O)cc(-c3ccc(OC)c(-c4c(O)cc(O)c5c(=O)cc(-c6ccc(O)cc6)oc45)c3)oc2c1 [Ginkgetin]
SARS-CoV-2 [1]; [5]
  effect on Viral Load (viral burden): reduction in Viral Load levels

## CN1C[C@@H](C(=O)N[C@]2(C)O[C@@]3(O)[C@@H]4CCCN4C(=O)[C@H](Cc4ccccc4)N3C2=O)C=C2c3cccc4[nH]cc(c34)C[C@H]21 [Ergotamine]
SARS-CoV-2 [1]; [5]
  effect on Viral Load (viral burden): reduction in Viral Load levels

## O=c1c(O)cc([C@H]2Oc3cc(O)cc(O)c3C[C@H]2O)cc2c([C@H]3Oc4cc(O)cc(O)c4C[C@H]3O)cc(O)c(O)c12 [Theaflavin]
Vero E6 cells [3]
  effect on Host Cell Number (cell viability): did not show an effect
SARS-CoV-2 [1]; [5]
  effect on Viral Load (viral burden): did not show an effect

## C[C@@H]1O[C@@H](OC[C@H]2O[C@@H](Oc3c(-c4ccc(O)c(O)c4)oc4cc(O)cc(O)c4c3=O)[C@H](O)[C@@H](O)[C@@H]2O)[C@H](O)[C@H](O)[C@H]1O [Rutin]
Vero E6 cells [3]
  effect on Host Cell Number (cell viability): did not show an effect

## Punicalagin
SARS-CoV-2 [1]; [5]
  effect on Viral Load (viral burden): reduction in Viral Load levels

## Oc1cc(O)c2c(c1)O[C@H](c1ccc(O)c(O)c1)[C@H](O)[C@H]2c1c(O)cc(O)c2c1O[C@H](c1ccc(O)c(O)c1)[C@H](O)C2 [Procyanidin B2]
Vero E6 cells [3]
  effect on Host Cell Number (cell viability): did not show an effect
SARS-CoV-2 [1]; [5]
  effect on Viral Load (viral burden): did not show an effect

## Miquelianin/Quercetin 3-glucuronide
SARS-CoV-2 [1]
  effect on Viral Load (viral burden): did not show an effect

## O=c1cc(-c2ccc(O)c(-c3c(O)cc(O)c4c(=O)cc(-c5ccc(O)cc5)oc34)c2)oc2cc(O)cc(O)c12 [Amentoflavone]
SARS-CoV-2 [1]; [5]
  effect on Viral Load (viral burden): reduction in Viral Load levels

## O=c1oc2cc(O)ccc2c2ccc(O)cc12 [Urolithin A]
SARS-CoV-2 [2]
  Remdesivir concentration at which the compound synergized: ≤ 1.25 µM
  combined effect with Remdesivir on host cell viability: synergized

## Hypericin
SARS-CoV-2 [1]; [5]
  effect on Viral Load (viral burden): reduction in Viral Load levels

## O=C(/C=C/c1ccc(O)cc1)OC[C@H]1O[C@@H](Oc2c(-c3ccc(O)cc3)oc3cc(O)cc(O)c3c2=O)[C@H](O)[C@@H](O)[C@@H]1O [Tiliroside]
Vero E6 cells [4]
  concentrations that only mildly impacted Vero E6 cell viability compared to the DMSO treated control: less than or equal to 10 μM
  toxicity observed at (and above) concentration: ≥ 100 µM
Vero E6 cells [3]
  effect on Host Cell Number (cell viability): did not show an effect

## O=C(O[C@H]1Cc2c(O)cc(O)cc2O[C@H]1c1cc(O)c(O)c2c(=O)c(O)cc([C@H]3Oc4cc(O)cc(O)c4C[C@H]3O)cc12)c1cc(O)c(O)c(O)c1 [Theaflavin-3-gallate, Theaflavin 3-gallate]
SARS-CoV-2 [1]; [5]
  effect on Viral Load (viral burden): reduction in Viral Load levels

## C[C@@H]1CC[C@@]2(OC1)O[C@H]1C[C@H]3[C@@H]4CC=C5C[C@@H](O[C@@H]6O[C@H](CO)[C@@H](O[C@@H]7O[C@@H](C)[C@H](O)[C@@H](O)[C@H]7O)[C@H](O)[C@H]6O[C@@H]6O[C@@H](C)[C@H](O)[C@@H](O)[C@H]6O)CC[C@]5(C)[C@H]4CC[C@]3(C)[C@H]1[C@@H]2C [Dioscin]
Vero E6 cells [4]
  concentrations that did not significantly impact Vero E6 cell viability compared to the DMSO treated control: less than or equal to 0.1 μM
  toxicity observed at (and above) concentration: ≥ 1 µM
SARS-CoV-2 [1]; [5]
  effect on Viral Load (viral burden): reduction in Viral Load levels

## CC1OC(OCC2OC(Oc3c(-c4ccc(O)cc4)oc4cc(OC5OC(C)C(O)C(O)C5O)cc(O)c4c3=O)C(O)C(O)C2O)C(O)C(O)C1O (stereo not shown) [Robinin]
Vero E6 cells [3]
  effect on Host Cell Number (cell viability): did not show an effect
SARS-CoV-2 [1]; [5]
  effect on Viral Load (viral burden): did not show an effect
